# Article PMC4434089 (Biotechnology, Biotechnological Equipment, 2014)
# Several values for one entry are separate records, joined by “and”; a condition that tells them apart may be missing. Equal values may be shown once. Marks after values point to notes of the source that are not given here.
# What was measured:
# [1] = tested on: amylin-mediated cytotoxicity; set-up: method as in PMID 20093026; details: cited from earlier work
# [2] = tested on: amylin; assay: NTA of amylin aggregation, alone or with amylin derivatives; assay type: biochemical, human; details: for implied effect on fibrillogenesis of amylin: NTA compared with previously published reports; for Concentration of aggregates 100–150 nm, 10 min / Concentration of aggregates 200–300 nm, 10 min / Concentration of aggregates 150–200 nm, 10 min / Concentration of aggregates 100–150 nm, 24 h / Concentration of aggregates 200–300 nm, 24 h / Concentration of aggregates 150–200 nm, 24 h: amylin 50 μmol L^−1 alone (A) or with 250 μmol L^−1 derivative, pH 7.4, duplicate; for Concentration of aggregates 100–150 nm, 10 min: 10 mmol L^−1 sodium phosphate, 50 mmol L^−1 NaCl; for Concentration of aggregates 100–150 nm, 10 min / Concentration of aggregates 150–200 nm, 10 min: p < 0.05 less than A: n1, n5, m5; for Concentration of aggregates 200–300 nm, 10 min: p < 0.05 less than A: n1, n3, n5, m1, m2, m3, m4, m5; for Concentration of aggregates 100–150 nm, 24 h: p < 0.05 less than A: n1, n2, m5, significantly more: m2; for Concentration of aggregates 200–300 nm, 24 h: p < 0.05 less than A: n1, n2, n3, n4, n5, m5; for Concentration of aggregates 150–200 nm, 24 h: p < 0.05 less than A: n1, n2, n5, m5; for number of 200–300 nm aggregates at 24 h vs amylin only: amylin:derivative 50:250 μmol L^−1, p < 0.05; for effect on amylin aggregation over 24 h: all size ranges, amylin:derivative 50:250 μmol L^−1, vs amylin only; for concentration of 200–300 nm aggregates, with derivative: similar to or more than amylin only
# Protocol: NTA measurements were performed with a NanoSight LM20 instrument (NanoSight, United Kingdom) equipped with a 640 nm laser and a temperature controlled sample chamber. […] The sample temperature was maintained at 37 °C for the entire duration of the experiment. These experimental conditions were similar to that used for a previously reported cytotoxicity experiment,[73] thus allowing correlation of results obtained from the two techniques. […] Once again, samples were maintained at 37 °C and 60 s video footage were recorded every 10 min for the first hour and then at 24 h. All videos were captured with the single shutter and gain modes. Analysis was performed using NanoSight NTA version 2.2 software with a viscosity setting of 0.70.
# [3] = tested on: amylin; set-up: method as in 2 sources, ref 23 = [23]; PMID 9878384; doi:10.1006/jmbi.1998.2299; Goldsbury C Kistler J Aebi U Arvinte T Cooper GJS J Mol Biol. 1999 285 33 39 9878384 10.1006/jmbi.1998.2299 ||| ref 26 = [26]; PMID 9216085; doi:10.1006/jsbi.1997.3858; Goldsbury CS Cooper GJS Goldie KN Muller SA Saafi EL Gruijters WTM Misur MP J Struct Biol. 1997 119 17 27 http://dx.doi.org/10.1006/jsbi.1997.3858 9216085 10.1006/jsbi.1997.3858; details: cited from earlier work
Substance,reduction of amylin-mediated cytotoxicity [1],implied effect on fibrillogenesis of amylin [2],"Concentration of aggregates 100–150 nm, 10 min ([2]; NTA, 10 min, 37 °C)","Concentration of aggregates 200–300 nm, 10 min ([2]; NTA, 10 min, 37 °C)","Concentration of aggregates 150–200 nm, 10 min ([2]; NTA, 10 min, 37 °C)","Concentration of aggregates 100–150 nm, 24 h ([2]; NTA, 37 °C)","Concentration of aggregates 200–300 nm, 24 h ([2]; NTA, 37 °C)","Concentration of aggregates 150–200 nm, 24 h ([2]; NTA, 37 °C)",number of 200–300 nm aggregates at 24 h vs amylin only ([2]; NTA),effect on amylin aggregation over 24 h ([2]; NTA),inhibitory effect on amylin-mediated cytotoxicity [1],"concentration of 200–300 nm aggregates, with derivative ([2]; NTA)",further results
STNVGS [n5],more than 40%,increase fibrillogenesis of amylin to an aggregate that is larger than 1000 nm,0.1* ×10^7 aggregates/mL,0.5* ×10^7 aggregates/mL,0.1* ×10^7 aggregates/mL,2.4 ×10^7 aggregates/mL,2.0* ×10^7 aggregates/mL,1.4* ×10^7 aggregates/mL,significantly lower than in samples containing amylin only,small amount of aggregates of all size ranges which increases only marginally over 24 h,–,–,–
"Amylin: chemically synthesized full-length human amylin, 37 amino acid long peptide (KCNTATCATQRLANFLVHSSNNFGAILSSTNVGSNTY; Islet amyloid polypeptide; UniProt P10997 34-70, looked up) [reference compound]",–,–,5.7 ×10^7 aggregates/mL,7.0 ×10^7 aggregates/mL,5.4 ×10^7 aggregates/mL,2.9 ×10^7 aggregates/mL,2.7 ×10^7 aggregates/mL,2.5 ×10^7 aggregates/mL,–,–,–,–,"amylin growth rate (AFM) ([3]; AFM): 1.1 nm/min; mass-per-length (MPL) of amylin protofibril ([3]; STEM): 10 kDa nm^−1; approximate rate of amylin aggregation ([3]; estimated from literature AFM and STEM values): ~11 kDa min^−1; critical concentration of 200–300 nm aggregates for amylin-mediated cytotoxicity ([2]; NTA correlated to cytotoxicity data, suggested): more than 2.1 × 10^7 aggregates per millilitre; size of toxic species of amylin ([2]; NTA correlated to previously published cytotoxicity (ref 73), tentatively suggested): 200–300 nm; predominant aggregate size ([2]; NTA, amylin 50 μmol L^−1 alone, 37 °C, pH 7.4, over 24 h): 150–200 nm and 200–300 nm; completion of aggregation ([2]; NTA, amylin alone): complete aggregation of amylin occurs within the first hour; concentration of 100–150, […]–200 and 200–300 nm aggregates after the first hour ([2]; NTA, amylin alone, stable up until 24 h): 2.5 × 10^7 – 3.0 × 10^7 aggregates per millilitre; total concentration of aggregates ([2]; initial NTA, 50 μmol L^−1 amylin): 3.12 × 10^8 aggregates per millilitre"
NTAT [n1],more than 40%,inhibit fibrillogenesis,0.5* ×10^7 aggregates/mL,0.4* ×10^7 aggregates/mL,0.5* ×10^7 aggregates/mL,0.9* ×10^7 aggregates/mL,0.8* ×10^7 aggregates/mL,1.1* ×10^7 aggregates/mL,significantly lower than in samples containing amylin only,significantly less than that observed in samples containing disaggregated amylin only,–,–,–
TQRLA [n2],more than 40%,increase fibrillogenesis of amylin to an aggregate that is larger than 1000 nm,4.3 ×10^7 aggregates/mL,3.4 ×10^7 aggregates/mL,2.5 ×10^7 aggregates/mL,1.5* ×10^7 aggregates/mL,2.1* ×10^7 aggregates/mL,1.5* ×10^7 aggregates/mL,significantly lower than in samples containing amylin only,–,–,–,"concentrations of 100–150, […]–200 and 200–300 nm aggregates at 10 min vs amylin only ([2]; NTA, 10 min, amylin:derivative 50:250 μmol L^−1, unpaired t-test): not significantly different"
STNVGS* [m5],more than 40%,inhibit fibrillogenesis,0.9* ×10^7 aggregates/mL,0.8* ×10^7 aggregates/mL,0.8* ×10^7 aggregates/mL,1.6* ×10^7 aggregates/mL,1.4* ×10^7 aggregates/mL,1.3* ×10^7 aggregates/mL,significantly lower than in samples containing amylin only,significantly fewer amylin aggregates of all size ranges,–,–,–
TQRLA* [m2],–,–,3.9 ×10^7 aggregates/mL,2.6* ×10^7 aggregates/mL,2.4 ×10^7 aggregates/mL,3.6** ×10^7 aggregates/mL,4.6 ×10^7 aggregates/mL,7.9 ×10^7 aggregates/mL,–,–,not to have an inhibitory effect on amylin-mediated cytotoxicity,≥ 2.7 × 10^7 aggregates per millilitre,–
FLVHSS* [m3],–,–,2.1 ×10^7 aggregates/mL,2.1* ×10^7 aggregates/mL,1.6 ×10^7 aggregates/mL,5.9 ×10^7 aggregates/mL,4.7 ×10^7 aggregates/mL,3.9 ×10^7 aggregates/mL,–,–,not to have an inhibitory effect on amylin-mediated cytotoxicity,≥ 2.7 × 10^7 aggregates per millilitre,–
NFGAIL* [m4],–,–,2.7 ×10^7 aggregates/mL,1.6* ×10^7 aggregates/mL,1.5 ×10^7 aggregates/mL,4.1 ×10^7 aggregates/mL,3.3 ×10^7 aggregates/mL,2.8 ×10^7 aggregates/mL,–,–,not to have an inhibitory effect on amylin-mediated cytotoxicity,≥ 2.7 × 10^7 aggregates per millilitre,–
